Values of other authors, collected in patent publication US20220235393A1, “SURROGATE VIRUS ASSAYS AND METHODS” (priority 2019, published 2022).

System: ASFV

O=C(O)CC(O)(CC(=O)O)C(=O)O [citric acid]
inactivation of virus applied to wood surfaces: completely inactivated
